{"source": "patent US7241905B2", "about": "“Dioxin analogues and methods and kits for searching out dioxins-decomposing organisms or enzymes or dioxin-decomposing enzyme genes” (Forestry and Forest Products Research Institute, priority 2001, dated 2007)", "assay_type_in_all_cases": "cell-based", "key": {"[1]": {"test_system": "Pleurotus pulumonairus", "test": "Degradation of dioxin in fungal culture, measured with a dioxin immunoassay kit", "details": "P. pulumonairus culture; 0.5 ppm; cultured 20 days; control medium without fungus 0%", "description": "(§1) Pleurotus pulumonairus, which has proven to cause the most intense fluorescence in Examples 3 and 4, was examined for its ability to degrade dioxin.\n(§2) As in Examples 3 and 4, Pleurotus pulumonairus was cultured in a culture medium containing glucose and peptone and, on day 7, 2,3,7,8-tetrachlorodioxin was added to the medium at a final concentration of 0.5 ppm. The fungus was subsequently cultured for 20 days. After the culturing period, the culture medium containing the fungus was freeze-dried and was subjected to extraction by refluxing with hexane. Hexane was then removed by distillation and the remaining culture was diluted 200-fold with 200 ml methanol containing 100 ppm Triton X-100. Using a High Performance Dioxin Immunoassay Kit (Cape Technologies, United States) according to the manufacturer's instruction, the concentration of dioxin was measured to determine the degradation rate of dioxin. A control shown in Table 2 is the above-described culture medium with only 2,3,7,8-tetrachlorodioxin added. Fomitopsis palustris was used as a negative control."}, "[2]": {"test_system": "Fomitopsis palustris", "test": "Degradation of dioxin in fungal culture, measured with a dioxin immunoassay kit", "details": "F. palustris culture (negative control fungus), 0.5 ppm, cultured 20 days, attributed to non-specific binding to fungal cells", "description": "as §1, §2"}, "[3]": {"test_system": "Pleurotus pulumonairus", "test": "Screening of wood-rotting fungi for degradation of the esculetin-type dioxin analogue (fluorescence of metabolites)", "details": "P. pulumonairus culture; substrate 1 ppm; day 7; excitation 350 nm, emission 450 nm; control medium without fungus 1370", "description": "(§3) Different species of wood-rotting fungi (i.e., Grammothele fuligo WD844, Phanerochaete crassa WD1694, Phanerochaete chrysosporium ME446, Fomitopsis palustris, Coriolus versicolor, and Pleurotus pulumonairus) were used as test subjects and were screened for the ability to degrade the dioxin analogue obtained in Example 1 (esculetin-type analogue).\n(§4) Each subject fungal species, which had been pre-cultured on potato agar and stamped out of the agar using a cork borer, was inoculated onto 10 ml modified NS medium (3% glucose, 1% peptone, inorganic salts, pH 5.0) in a 100 ml Erlenmeyer flask and was cultured for 5 to 7 days at 28° C. Subsequently, a 100 μl DMSO solution containing the substrate (esculetin-type dioxin analogue obtained in Example 1) at a final concentration of 1 ppm was added to the culture. The solution was added so that the concentration of DMSO in the medium was 1%. Samples of the culture solution were collected at predetermined time intervals (i.e., 1, 3, and 5 days after the addition of the substrate). To a 100 μl portion of each sample, 1.9 ml of an alkaline buffer (100 mM glycine, 100 mM sodium hydroxide, pH 10.0) was added. The sample mixtures were then exposed to long-range UV light (365 nm) as excitation light and were visually screened for those emitting fluorescence. On day 7, the samples were irradiated with excitation light of 350 nm and, using a fluorescence spectrophotometer, the intensity of fluorescence was measured at 450 nm. A control shown in Table 1 is the above-described culture medium with only dioxin analogue (esculetin-type) added."}, "[4]": {"test_system": "Phanerochaete crassa WD1694", "test": "Screening of wood-rotting fungi for degradation of the esculetin-type dioxin analogue (fluorescence of metabolites)", "details": "P. crassa WD1694 culture; substrate 1 ppm; day 7; excitation 350 nm, emission 450 nm; control medium without fungus 1370", "description": "as §3, §4"}, "[5]": {"test_system": "Phanerochaete chrysosporium ME446", "test": "Screening of wood-rotting fungi for degradation of the esculetin-type dioxin analogue (fluorescence of metabolites)", "details": "P. chrysosporium ME446 culture; substrate 1 ppm; day 7; excitation 350 nm, emission 450 nm; control medium without fungus 1370", "description": "as §3, §4"}, "[6]": {"test_system": "Fomitopsis palustris", "test": "Screening of wood-rotting fungi for degradation of the esculetin-type dioxin analogue (fluorescence of metabolites)", "details": "F. palustris culture; substrate 1 ppm; day 7; excitation 350 nm, emission 450 nm; control medium without fungus 1370", "description": "as §3, §4"}, "[7]": {"test_system": "Coriolus versicolor", "test": "Screening of wood-rotting fungi for degradation of the esculetin-type dioxin analogue (fluorescence of metabolites)", "details": "C. versicolor culture; substrate 1 ppm; day 7; excitation 350 nm, emission 450 nm; control medium without fungus 1370", "description": "as §3, §4"}, "[8]": {"test_system": "Grammothele fuligo WD844", "test": "Screening of wood-rotting fungi for degradation of the esculetin-type dioxin analogue (fluorescence of metabolites)", "details": "G. fuligo WD844 culture; substrate 1 ppm; day 7; excitation 350 nm, emission 450 nm; control medium without fungus 1370", "description": "as §3, §4"}, "[9]": {"test_system": "Pleurotus pulumonairus", "test": "Screening of wood-rotting fungi for degradation of the naphthalene-type dioxin analogue (visual fluorescence)", "details": "P. pulumonairus culture; substrate 1 ppm; samples 1, 3 and 5 days after addition; UV 365 nm; compared with the other five fungi", "description": "as §3, with “2 (naphthalene-type” for “1 (esculetin-type”\nas §4, with “pH5.0)” for “pH 5.0)”, “naphthalene-type” for “(esculetin-type”, “2” for “1)”, “μportion” for “μl portion”, “pH10.0)” for “pH 10.0)”, “fluorescence.” for “fluorescence. On day 7, the samples were irradiated with excitation light of 350 nm and, using a fluorescence spectrophotometer, the intensity of fluorescence was measured at 450 nm. A control shown in Table 1 is the above-described culture medium with only dioxin analogue (esculetin-type) added.”"}}}
{"smiles": "Clc1cc2c(cc1Cl)Oc1cc(Cl)c(Cl)cc1O2", "note": "[2,3,7,8-tetrachlorodioxin]", "values": [{"measurement": "Degradation rate", "setting": "[1]", "result": 31, "unit": "%"}, {"measurement": "Degradation rate", "setting": "[2]", "result": 9, "unit": "%"}, {"measurement": "Degradation rate", "setting": "[2]; listed as dioxin", "result": 9, "unit": "%"}]}
{"smiles": "Cc1cc(=O)oc2cc3c(cc12)Oc1cc(Cl)c(Cl)cc1O3", "note": "[Example 1]", "values": [{"measurement": "Fluorecsence intensity", "setting": "[3]", "result": 2203}, {"measurement": "Fluorecsence intensity", "setting": "[4]", "result": 1419}, {"measurement": "Fluorecsence intensity", "setting": "[5]", "result": 1619}, {"measurement": "Fluorecsence intensity", "setting": "[6]", "result": 1314}, {"measurement": "Fluorecsence intensity", "setting": "[7]", "result": 1601}, {"measurement": "Fluorecsence intensity", "setting": "[8]", "result": 1639}]}
{"smiles": "Clc1cc2c(cc1Cl)Oc1cc3ccccc3cc1O2", "note": "[Example 2]", "values": [{"measurement": "Fluorescence emission, visually screened", "setting": "[9]", "result": "most intense fluorescence emission"}]}
